# From patent publication US9051317B2, “Azaindoles as respiratory syncytial virus antiviral agents” (JANSSEN SCIENCES IRELAND UC, priority 2010, dated 2015)
# Read-outs that look alike come from different tables or passages of the source.
# How the values were obtained:
# rgRSV224 virus = experiment: microbe, parasite or virus in culture; assay type: cell-based, respiratory syncytial virus (RSV); conditions: for EC50: read-out: WT activity EC50; for SI CC50/EC50: selectivity index, CC50 (HeLa cytotoxicity) / EC50 (rgRSV224)
# Procedure: (§1) Black 96-well clear-bottom microtiter plates (Corning, Amsterdam, The Netherlands) were filled in duplicate using a customized robot system with serial 4-fold dilutions of compound in a final volume of 50 μl culture medium [RPMI medium without phenol red, 10% FBS, 0.04% gentamycin (50 mg/mL) and 0.5% DMSO]. Then, 100 μl of a HeLa cell suspension (5×10^4 cells/mL) in culture medium was added to each well followed by the addition of 50 μl rgRSV224 (MOI=0.02) virus in culture medium using a multidrop dispenser (Thermo Scientific, Erembodegem, Belgium). rgRSV224 virus is an engineered virus that includes an additional GFP gene (Hallak et al, 2000) and was in-licensed from the NIH (Bethesda, Md., USA). Medium, virus- and mock-infected controls were included in each test. Cells were incubated at 37° C. in a 5% CO2 atmosphere. Three days post-virus exposure, viral replication was quantified by measuring GFP expression in the cells by a MSM laser microscope (Tibotec, Beerse, Belgium). The EC50 was defined as the 50% inhibitory concentration for GFP expression. In parallel, compounds were incubated for three days in a set of white 96-well microtitier plates (Corning) and the cytotoxicity of compounds in HeLa cells was determined by measuring the ATP content of the cells using the ATPlite kit (PerkinElmer, Zaventem, Belgium) according to the manufacturer's instructions. The CC50 was defined as the 50% concentration for cytotoxicity.
# [1] = Cytotoxicity in HeLa cells, ATP content (ATPlite kit); assay type: cell-based; conditions: human, Table 1, three days incubation, read-out: Toxicity CC50
# Procedure: as §1
# [2] = human respiratory syncytial virus, HeLa, 72 h
# [3] = Table 2, rgRSV224 in HeLa cells, MOI 0.02, three days post-virus exposure, GFP expression
SMILES,EC50 (rgRSV224 virus; [2]) [nM],CC50 at 3 days [1] [µM],SI CC50/EC50 (rgRSV224 virus; Table 2),EC50 (rgRSV224 virus; [3]) [nM],SI CC50/EC50 (rgRSV224 virus; Table 3)
"O=c1n(Cc2cc3cnccc3n2CCCCO)c2cnccc2n1C1CC1 [Compound P1, 1-Cyclopropyl-3-{[1-(4-hydroxybutyl)-1H-pyrrolo[3,2-c]pyridin-2-yl]methyl}-1,3-dihydro-2H-imidazo[4,5-c]pyridin-2-one]",1.05,> 98.4,,,
"O=c1n(Cc2cc3nc(Cl)ccc3n2CCCCO)c2cnccc2n1C1CC1 [Compound P2, 3-{[5-Chloro-1-(4-hydroxybutyl)-1H-pyrrolo[3,2-b]pyridin-2-yl]methyl}-1-cyclopropyl-1,3-dihydro-2H-imidazo[4,5-c]pyridin-2-one]",15.6,> 9.84,,,
"CC(C)CCn1c(Cn2c(=O)n(C3CC3)c3ccncc32)cc2ncccc21 [Compound P3, 1-Cyclopropyl-3-{[1-(3-methylbutyl)-1H-pyrrolo[3,2-b]pyridin-2-yl]methyl}-1,3-dihydro-2H-imidazo[4,5-c]pyridin-2-one]",62.9,68,,,
"O=c1n(Cc2cc3ccncc3n2CCCCO)c2cnccc2n1C1CC1 [Compound P4, 1-Cyclopropyl-3-{[1-(4-hydroxybutyl)-1H-pyrrolo[2,3-c]pyridin-2-yl]methyl}-1,3-dihydro-2H-imidazo[4,5-c]pyridin-2-one]",129,> 9.84,,,
"O=c1n(Cc2cc3ncccc3n2CCCCO)c2cnccc2n1C1CC1 [Compound P5, 1-Cyclopropyl-3-{[1-(4-hydroxybutyl)-1H-pyrrolo[3,2-b]pyridin-2-yl]methyl}-1,3-dihydro-2H-imidazo[4,5-c]pyridin-2-one]",160,> 98.4,,,
"COc1ccc2c(cc(Cn3c(=O)n(C4CC4)c4ccncc43)n2CCCCO)n1 [Compound P6, 1-Cyclopropyl-3-{[1-(4-hydroxybutyl)-5-methoxy-1H-pyrrolo[3,2-b]pyridin-2-yl]methyl}-1,3-dihydro-2H-imidazo[4,5-c]pyridin-2-one]",220,> 9.84,,,
"O=c1n(Cc2cc3nc(O)ccc3n2CCCCO)c2cnccc2n1C1CC1 [Compound P8, 1-Cyclopropyl-3-{[5-hydroxy-1-(4-hydroxybutyl)-1H-pyrrolo[3,2-b]pyridin-2-yl]methyl}-1,3-dihydro-2H-imidazo[4,5-c]pyridin-2-one]",8460,> 9.84,,,
"CC(C)(C)C(=O)OCCCCn1c(Cn2c(=O)n(C3CC3)c3ccncc32)cc2nc(O)ccc21 [Compound P9, 4-{2-[(1-Cyclopropyl-2-oxo-1,2-dihydro-3H-imidazo[4,5-c]pyridin-3-yl)methyl]-5-hydroxy-1H-pyrrolo[3,2-b]pyridin-1-yl}butyl 2,2-dimethylpropanoate]",> 9840,> 9.84,,,
"O=c1n(Cc2cc3cc(Cl)ncc3n2CCCCF)c2cnccc2n1C1CC1 [Compound P11, 3-((5-chloro-1-(4-fluorobutyl)-1H-pyrrolo[2,3-c]pyridin-2-yl)methyl)-1-cyclopropyl-1H-imidazo[4,5-c]pyridin-2(3H)-one]",5.33,,>9387,,
O=c1n(Cc2cc3cc(Cl)ncc3n2CCCC(F)(F)F)c2cnccc2n1C1CC1 [Compound P12],,,>10526,2.38,
O=c1n(Cc2cc3cc(Cl)ncc3n2CCCC(F)(F)F)c2cnccc2n1CC(F)(F)F [Compound P13],,,>106591,0.938,
O=c1n(Cc2cc3cc(Cl)ncc3n2CCCC(F)(F)F)c2cc(F)ccc2n1CC(F)(F)F [Compound P14],,,>5823,17.2,
O=c1n(Cc2cc3cc(Cl)ncc3n2CCCCF)c2cnccc2n1CC(F)(F)F [Compound P15],,,51626,1.58,
O=c1n(Cc2cc3cc(Cl)ncc3n2CCCC(F)(F)F)c2cc(F)ccc2n1C1CC1 [Compound P16],,,>2730,39.8,
CS(=O)(=O)CCCn1c(Cn2c(=O)n(C3CC3)c3ccncc32)cc2cnccc21 [Compound P18],,,>102089,0.98,
O=c1n(Cc2cc3cnccc3n2CCCCF)c2cnccc2n1C1CC1 [Compound P19],,,>186574,0.536,
CC(C)CCn1c(Cn2c(=O)n(C3CC3)c3ccncc32)cc2cnccc21 [Compound P20],,,294002,0.28,
O=c1n(Cc2cc3cnccc3n2CCCC(F)(F)F)c2cnccc2n1C1CC1 [Compound P21],,,>405210,0.247,
O=c1n(Cc2c(Cl)c3cnccc3n2CCCC(F)(F)F)c2cnccc2n1C1CC1 [Compound P22],,,>20007,5,
O=c1n(Cc2c(F)c3cnccc3n2CCCC(F)(F)F)c2cnccc2n1C1CC1 [Compound P23],,,>3416,29.3,
O=c1n(Cc2cc3cnccc3n2CCCC(F)(F)F)c2c(F)nccc2n1C1CC1 [Compound P24],0.17,,,,>589061
Cc1c(Cn2c(=O)n(C3CC3)c3ccncc32)n(CCCC(F)(F)F)c2ccncc12 [Compound P25],,,>73885,1.35,

SMILES,EC50 (rgRSV224 virus; [2]) [nM],CC50 at 3 days [1] [µM],SI CC50/EC50 (rgRSV224 virus; Table 2),EC50 (rgRSV224 virus; [3]) [nM],SI CC50/EC50 (rgRSV224 virus; Table 3)
O=c1n(Cc2c(I)c3cnccc3n2CCCC(F)(F)F)c2cnccc2n1C1CC1 [Compound P26],,,21638,2.35,
CS(=O)(=O)CCCn1c(Cn2c(=O)n(CC(F)(F)F)c3ccc(F)cc32)c(Br)c2cnccc21 [Compound P29],,,307,63.5,
CS(=O)(=O)CCCn1c(Cn2c(=O)n(CC(F)(F)F)c3ccc(F)cc32)cc2cnccc21 [Compound P30],,,>162986,0.614,
CC(C)CCn1c(Cn2c(=O)n(C3CC3)c3ccncc32)cc2nc(Cl)ccc21 [Compound P32],,,>1286,7.77,
CS(=O)(=O)CCCn1c(Cn2c(=O)n(C3CC3)c3ccncc32)cc2nc(Cl)ccc21 [Compound P33],,,>17372,5.76,
CC(C)CCn1c(Cn2c(=O)n(C3COC3)c3ccncc32)cc2nc(Cl)ccc21 [Compound P34],,,>2856,35,
CS(=O)(=O)CCCn1c(Cn2c(=O)n(C3COC3)c3ccncc32)cc2nc(Cl)ccc21 [Compound P36],,,>14674,6.81,
CS(=O)(=O)CCCn1c(Cn2c(=O)n(C3CC3)c3ccc(F)cc32)cc2nc(Cl)ccc21 [Compound P37],,,>4479,22.3,
CC(C)CCn1c(Cn2c(=O)n(C3CC3)c3ccc(F)cc32)cc2nc(Cl)ccc21 [Compound P38],,,1510,32.8,
CC(C)CCn1c(Cn2c(=O)n(C3CC3)c3ccccc32)cc2nc(Cl)ccc21 [Compound P39],,,>388,129,
O=c1n(Cc2cc3nc(Cl)ccc3n2CCCC(F)(F)F)c2cnccc2n1C1CC1 [Compound P40],,,>37045,2.7,
"O=c1n(Cc2cc3nc(Cl)ccc3n2CCCCF)c2cnccc2n1C1CC1 [Compound P42, 3-((5-chloro-1-(4-fluorobutyl)-1H-pyrrolo[3,2-b]pyridin-2-yl)methyl)-1-cyclopropyl-1H-imidazo[4,5-c]pyridin-2(3H)-one]",2.84,,17031,,
O=c1n(Cc2cc3nc(Cl)ccc3n2CCCC(F)(F)F)c2ccccc2n1C1CC1 [Compound P43],,,1291,69.2,
O=c1n(Cc2cc3nc(Cl)ccc3n2CCCCF)c2cnc(Cl)cc2n1C1CC1 [Compound P44],17.9,,,,620
O=c1n(Cc2cc3ncccc3n2CCCCF)c2cnccc2n1C1CC1 [Compound P45],,,>2332,42.9,
O=c1n(Cc2cc3nc(C(F)(F)F)ccc3n2CCCCF)c2cnccc2n1C1CC1 [Compound P46],,,>755,132,
O=c1n(Cc2cc3nc(Cl)ccc3n2CCCCF)c2cc(F)ccc2n1CC(F)(F)F [Compound P47],,,>720,138,
O=c1n(Cc2cc3nc(Cl)ccc3n2CCCCF)c2cnccc2n1CC(F)(F)F [Compound P48],,,10490,7.36,
O=c1n(Cc2cc3nc(Cl)ccc3n2CCCC(F)(F)F)c2cnccc2n1CC(F)(F)F [Compound P49],,,>34306,2.1,
O=c1n(Cc2cc3nc(Cl)ccc3n2CCCCO)c2cnccc2n1CC(F)(F)F [Compound P50],,,>4946,10.1,
CS(=O)(=O)CCCn1c(Cn2c(=O)n(CC(F)(F)F)c3ccncc32)cc2nc(Cl)ccc21 [Compound P52],,,>119028,0.84,
N#CCCCn1c(Cn2c(=O)n(C3CC3)c3ccncc32)cc2nc(Cl)ccc21 [Compound P53],,,>6232,15.8,
